Assay results as given in patent US7829560B2, “1,4-disubstituted naphthalenes as inhibitors of P38 MAP kinase” (Arqule, Inc., priority 2004, dated 2010).
“And” between values parts separate entries of the source, which are not always exact repeats. Equal entries are not always repeated.

Target: T1, p38α (Homo sapiens, UniProt Q16539)
T1 construct: p38 MAP Kinases are recombinant human full-length proteins with an amino-terminal GST fusion; GST (N); purchased Upstate Biotechnology Inc; host or cells: E. coli
T1 sequence (Q16539 whole entry, the tested form may be a part): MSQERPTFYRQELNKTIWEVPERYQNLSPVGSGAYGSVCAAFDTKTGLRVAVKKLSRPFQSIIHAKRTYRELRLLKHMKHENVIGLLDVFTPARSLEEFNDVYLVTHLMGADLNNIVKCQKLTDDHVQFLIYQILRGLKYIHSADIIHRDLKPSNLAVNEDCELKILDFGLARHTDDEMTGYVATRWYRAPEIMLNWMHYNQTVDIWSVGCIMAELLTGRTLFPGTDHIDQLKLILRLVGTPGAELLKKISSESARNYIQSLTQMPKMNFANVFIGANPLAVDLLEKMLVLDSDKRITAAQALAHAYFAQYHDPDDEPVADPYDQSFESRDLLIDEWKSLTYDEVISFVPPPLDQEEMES
Experiment: p38 MAP Kinase assay: inhibition of ATF2 phosphorylation, ELISA
Type: biochemical
Conditions: for inhibition at 10 µM: substrate ATF2, read-out: [ENZ] P38 ALPHA, PCT INH, ELISA (10 uM;ATF2) (Percent); for IC50: ATF2 phosphorylation, read-out: [ENZ] P38 ALPHA, IC50, ELISA
From the text: Compounds of the invention are screened for the ability to inhibit ATF2 phosphorylation by p38 MAP Kinase in vitro. The ability of compounds to inhibit ATF2 phosphorylation in this in vitro assay is correlated with the inhibition of p38 MAP Kinase and TNFα expression in vivo, and is therefore an indicator of potential in vivo therapeutic activity (Raingeaud, J., et al, J. Biol. Chem., 270: 7420-7426, 1995, Brinkman, M. N., et al, J. Biol. Chem. 274: 30882-30886, 1999 and Fuchs, S. Y. et al, J. Biol. Chem. 275: 12560-12564, 2000).
Materials: All kinases and the substrate ATF2 are acquired from Upstate Biotechnology Inc. p38 MAP Kinases are recombinant human full-length proteins with an amino-terminal GST fusion, expressed in and purified from E. coli. ATF2 is a GST fusion protein containing amino acids 19-96 of human ATF2 expressed in E. coli. All proteins are aliquoted and stored at −80° C.
Methods: p38 MAP Kinase assays are performed using an assay buffer containing 25 mM HEPES, pH 7.5, 10 mM MgCl2, 2 mM DTT, 20 mM β-glycerophosphate, 0.1 mM Na3VO4, 40 μM ATP and 1.25 μM of ATF2 and in the absence or presence of 1% human serum albumin, Method I and II, respectively, with 0.4-6 ng of protein depending on the kinase used. Compounds are serially diluted in DMSO and 2 μL of test compound at 25× final concentration is used. The vehicle control receives DMSO only. Test compounds are pre-incubated with 20 μl of enzyme in kinase buffer (25 mM HEPES, pH 7.5, 10 mM MgCl2, 2 mM DTT, 20 mM β-glycerophosphate, 0.1 mM Na3VO4 in the absence or presence of 1% human serum albumin, Method I and II, respectively) at room temperature for 15 minutes. […] The reactions are incubated for 30 minutes at 37° C. and terminated by the addition of 18 μl of 200 mM EDTA. An ELISA method (I or II) is used to measure the phosphorylation of ATF2 at Thr 69. Method I: 96-well high binding plates (Corning 3369) are coated with 50 μl of kinase reaction for 1 hour at 37° C. The coated plates are washed with 200 μl washing buffer (25 mM Tris HCl, pH 8.3, 192 mM glycine, 0.1% SDS and 0.05% Tween-20) three times. The plates are then washed three times with SuperBlock in TBS (Pierce, 37535). After blocking, plates are incubated with 50 μl of rabbit anti-phospho-ATF2 antibody (Cell Signaling, 9221L, 1:500) for 30 minutes at 37° C. Plates are washed three times with washing buffer prior to incubation with 50 μl HRP-conjugated goat anti-rabbit antibody (Cell Signaling, 7074, 1:500) for 30 minutes at 37° C. Plates are then washed three times with washing buffer before incubation with 50 μl of Ultra TMB-ELISA (Pierce, 34028) for 8 minutes at room temperature. Finally, 50 ul of phosphoric acid (1 M) is added to stop reactions and plate absorbance is read at 450 nm on a SpectraMax 250 plate reader. Method II: 96-well high binding plates (Corning 3369) are coated with 400 ng of monoclonal antibody against GST-tag (Cell signaling) in 100 μl containing sodium borate (pH 8.3) for 90 minutes at 37° C. The plates are washed with 200 μl washing buffer (25 mM Tris HCl, pH 7.2, 150 mM NaCl and Tween-20) three times and blocked with 200 μl of 5% nonfat milk for 30 minutes at room temperature. The plates are washed three times with washing buffer, 50 μl of stopped kinase reaction are added to each well and incubated for 80 minutes at 37° C. The plates are washed three times with 200 μl washing buffer, and the plates are incubated with 50 μl of rabbit anti-phospho-ATF2 antibody (Cell Signaling, 9221L, 1:500) for 30 minutes at 37° C. Plates are washed three times with washing buffer prior to incubation with 50 μl HRP-conjugated goat anti-rabbit antibody (Cell Signaling, 7074, 1:500) for 30 minutes at 37° C. Plates are washed three times with washing buffer before incubation with 50 μl of Ultra TMB-ELISA (Pierce, 34028) for 25 minutes at room temperature. Finally, 50 μl of phosphoric acid (1 M) is added to stop reactions and plate absorbance is read at 450 nm on a SpectraMax 250 plate reader. […]

Structure (SMILES) | inhibition at 10 µM [%] | IC50
O=C(Nc1ccc(OCCN2CCOCC2)c2ccccc12)c1cccc(-c2ccccc2C(F)(F)F)c1 [Compound B97] | 31 | > 10 µM
Cc1cc(C(=O)Nc2ccc(OCCN3CCOCC3)c3ccccc23)cc(Cl)n1 [Compound B64] | 3 | –
Cc1cccc(N2CCN(c3cccc(C(=O)Nc4ccc(OCCN5CCOCC5)c5ccccc45)c3)CC2)c1 [Compound B172] | 25 | –
O=C(Nc1ccc(OCCN2CCOCC2)c2ccccc12)c1cccc(C(=O)c2ccccc2)c1 [Compound B78] | 34 | > 10 µM
COc1cc(-c2cccc(C(=O)Nc3ccc(OCCN4CCOCC4)c4ccccc34)c2)cc(OC)c1OC [Compound B112] | 15 | > 100 µM
CC(C)(C)C1CCC(Oc2cc(F)cc(C(=O)Nc3ccc(OCCN4CCOCC4)c4ccccc34)c2)CC1 (stereo not drawn) [Compound B216] | – | > 10 µM
O=C(Nc1ccc(OCCN2CCOCC2)c2ccccc12)c1cccc(N2CCOCC2)n1 [Compound B134] | 20 | –
Cc1cc(C)cc(-c2cccc(C(=O)Nc3ccc(OCCN4CCOCC4)c4ccccc34)c2)c1 [Compound B113] | 29 | > 10 µM
O=C(Nc1ccc(OCCN2CCOCC2)c2ccccc12)c1ccnc(N2CCC(N3CCCCC3)CC2)c1 [Compound B129] | 19.5 | –
O=C(Nc1ccc(OCCN2CCOCC2)c2ccccc12)c1cc(F)cc(C(F)(F)F)c1 [Compound B77] | 28 | –
O=C(Nc1ccc(OCCN2CCCCC2)c2ccccc12)c1ccnc(N2CCOCC2)c1 [Compound B22] | 12.5 | –
CCn1nc(C)cc1C(=O)Nc1ccc(OCCN2CCOCC2)c2ccccc12 [Compound B80] | 9 | –
CC(C)(C)CCNc1cccc(C(=O)Nc2ccc(OCCN3CCOCC3)c3ccccc23)n1 [Compound B147] | 12 | –
O=C(Nc1ccc(OCCN2CCOCC2)c2ccccc12)c1cccc(-c2cccc(Cl)c2)c1 [Compound B94] | 71 | 1.14 µM
O=C(Nc1ccc(OCCN2CCOCC2)c2ccccc12)c1cccc(N2CCC(CO)CC2)n1 [Compound B145] | 11 | –
CC(C)(C)c1ccc(-c2cccc(C(=O)Nc3ccc(OCCN4CCOCC4)c4ccccc34)c2)cc1 [Compound B106] | 0 | –
O=C(Nc1ccc(OCCN2CCOCC2)c2ccccc12)c1ccnc(N2CCC(CO)CC2)c1 [Compound B131] | 34 | –
O=C(Nc1ccc(OCCN2CCCCC2)c2ccccc12)c1ccc(-n2ccc(C(F)(F)F)n2)cc1 [Compound B10] | 12.5 | –
CCc1ccc(-c2cccc(C(=O)Nc3ccc(OCCN4CCOCC4)c4ccccc34)c2)cc1 [Compound B102] | 21 | > 100 µM
CN1CCN(CCOc2ccc(NC(=O)c3ccc(CN4CCS(=O)(=O)CC4)cc3)c3ccccc23)CC1 [Compound B13] | 11.5 | –
O=C(Nc1ccc(OCCN2CCOCC2)c2ccccc12)c1cccc(-c2cc(F)cc(F)c2)c1 [Compound B103] | 68 | 1.63 µM
O=C(Nc1ccc(OCCN2CCSCC2)c2ccccc12)c1ccc(CN2CCS(=O)(=O)CC2)cc1 [Compound B17] | 30.5 | –

Structure (SMILES) | inhibition at 10 µM [%] | IC50
CCN(C)c1cc(C(=O)Nc2ccc(OCCN3CCOCC3)c3ccccc23)cc(C)n1 [Compound B157] | 8 | –
CC1CC(C)CN(c2cccc(C(=O)Nc3ccc(OCCN4CCOCC4)c4ccccc34)n2)C1 (stereo not drawn) [Compound B141] | 13 | –
O=C(Nc1ccc(OCCN2CCOCC2)c2ccccc12)c1cccc(N2CCN(c3ccc(F)cc3)CC2)n1 [Compound B139] | 7 | –
O=C(Nc1ccc(OCCN2CCOCC2)c2ccccc12)c1cccc(N2CCCCCCC2)n1 [Compound B135] | 20 | > 100 µM
O=C(Nc1ccc(OCCN2CCOCC2)c2ccccc12)c1cccc(-c2cc(Cl)cc(Cl)c2Cl)c1 [Compound B120] | 39 | > 100 µM
Cc1cc(C(=O)Nc2ccc(OCCN3CCOCC3)c3ccccc23)cc(N2CCCC2c2ccccc2Cl)n1 (stereo not drawn) [Compound B156] | 19 | > 100 µM
O=C(Nc1ccc(OCCN2CCOCC2)c2ccccc12)c1cccc(N2CCC(Cc3ccccc3)CC2)n1 [Compound B140] | 4 | –
O=C(Nc1ccc(OCCN2CCOCC2)c2ccccc12)c1cccc(N2CCSC2)n1 [Compound B138] | -36 | –
CN(C)CCN(C)c1cc(F)cc(C(=O)Nc2ccc(OCCN3CCOCC3)c3ccccc23)c1 [Compound B68] | 10 | –
O=C(Nc1ccc(OCCN2C(=O)CCC2=O)c2ccccc12)c1cc(F)cc(N2CCOCC2)c1 [Compound B221] | – | > 10 µM
O=C(Nc1ccc(OCCN2CCOCC2)c2ccccc12)c1cccc(-c2cccc(OCc3ccccc3)c2)c1 [Compound B119] | 11 | > 100 µM
O=C(Nc1ccc(OCCN2CCOCC2)c2ccccc12)c1ccnc(N2CCC(N3CCCC3)CC2)c1 [Compound B125] | 23.5 | –
O=C1CN(CCOc2ccc(NC(=O)c3cc(F)cc(N4CCCCC4)c3)c3ccccc23)CCN1 [Compound B164, 3-Fluoro-N-{4-[2-(3-oxo-piperazin-1-yl)-ethoxy]-naphthalen-1-yl}-5-piperidin-1-yl-benzamide] | 83.5 | 0.436 µM and 0.306 µM
O=C(Nc1ccc(OCCN2CCOCC2)c2ccccc12)c1cccc2ccccc12 [Compound B89] | 29 | –
O=C(Nc1ccc(OCCN2CCOCC2)c2ccccc12)c1cccc(-c2ccc(OC(F)(F)F)cc2)c1 [Compound B87, 4′-Trifluoromethoxy-biphenyl-3-carboxylic acid [4-(2-morpholin-4-yl-ethoxy)-naphthalen-1-yl]-amide] | 29 | > 100 µM
CC1CCN(c2cccc(C(=O)Nc3ccc(OCCN4CCOCC4)c4ccccc34)n2)CC1 [Compound B143] | 32 | > 100 µM
Cc1cc(C(=O)Nc2ccc(OCCN3CCOCC3)c3ccccc23)cc(N2CCc3ccccc3C2)n1 [Compound B150] | 15 | > 100 µM
O=C(Nc1ccc(OCCN2CCOCC2)c2ccccc12)c1ccnc(N2CCc3ccccc3C2)c1 [Compound B121] | 31.5 | –
CC(=O)N1CCN(c2cccc(C(=O)Nc3ccc(OCCN4CCOCC4)c4ccccc34)n2)CC1 [Compound B136] | 10 | –
O=C(Nc1ccc(OCCN2CCOCC2)c2ccccc12)c1cccc(N2CCC(N3CCCCC3)CC2)n1 [Compound B70] | 14 | –
Cc1ccc(-c2cccc(C(=O)Nc3ccc(OCCN4CCOCC4)c4ccccc34)c2)c2ccccc12 [Compound B114] | 11.3 | –
CCOc1ccccc1-c1cccc(C(=O)Nc2ccc(OCCN3CCOCC3)c3ccccc23)c1 [Compound B109] | 52 | 4.07 µM
